Experiments:
Assay in all cases: relative viability (nuclei count vs DMSO), 5 days (fraction); higher = more cells survive
[1] = compound: Nc1ccn([C@@H]2O[C@H](CO)[C@@H](O)C2(F)F)c(=O)n1 [Gemcitabine] + CCNC(=O)c1noc(-c2cc(C(C)C)c(O)cc2O)c1-c1ccc(CN2CCOCC2)cc1 [Luminespib] (partner 0.01 µM)
Procedure, shortened: (§1)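 Nuclei were stained with Hoechst during a one-step fixation (final 0.05% Triton X-100, 1% formaldehyde, 1 ug/ml Hoechst) carried out 5 days after dosing, then counted on 4× images. The cells, lung cancer lines in 1536-well plates, had been dosed by pin tool the day after seeding with one drug alone or a fixed anchor-drug dose plus five library-drug doses (not always all listed) in √10 steps. Relative viability is the nuclei count in treated wells divided by that in vehicle wells, and each value is the median of duplicate plates.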

[2] = compound: Nc1ccn([C@@H]2O[C@H](CO)[C@@H](O)C2(F)F)c(=O)n1 [Gemcitabine] + CS(=O)(=O)CCNCc1ccc(-c2ccc3ncnc(Nc4ccc(OCc5cccc(F)c5)c(Cl)c4)c3c2)o1 [Lapatinib] (partner 2 µM)
Procedure, shortened: as §1

[3] = compound: Nc1ccn([C@@H]2O[C@H](CO)[C@@H](O)C2(F)F)c(=O)n1 [Gemcitabine] + Nc1ncn([C@H]2C[C@H](O)[C@@H](CO)O2)c(=O)n1 [Decitabine] (partner 2 µM)
Procedure, shortened: as §1

[4] = compound: Nc1ccn([C@@H]2O[C@H](CO)[C@@H](O)C2(F)F)c(=O)n1 [Gemcitabine] + O=C(c1cc(Cc2n[nH]c(=O)c3ccccc23)ccc1F)N1CCN(C(=O)C2CC2)CC1 [Olaparib] (partner 8 µM)
Procedure, shortened: as §1

Cell Line: H3255
- relative viability ([1]; first compound 0.001 µM): 0.899
- relative viability ([1]; first compound 0.003162 µM): 0.752
- relative viability ([1]; first compound 0.01 µM): 0.707
- relative viability ([1]; first compound 0.03162 µM): 0.271
- relative viability ([1]; first compound 0.1 µM): 0.248
- relative viability ([2]; first compound 0.001 µM): 0.223
- relative viability ([2]; first compound 0.003162 µM): 0.235
- relative viability ([2]; first compound 0.01 µM): 0.221
- relative viability ([2]; first compound 0.03162 µM): 0.138
- relative viability ([2]; first compound 0.1 µM): 0.159
- relative viability ([3]; first compound 0.001 µM): 0.884
- relative viability ([3]; first compound 0.003162 µM): 0.374
- relative viability ([3]; first compound 0.01 µM): 0.42
- relative viability ([3]; first compound 0.03162 µM): 0.238
- relative viability ([3]; first compound 0.1 µM): 0.15
- relative viability ([4]; first compound 0.001 µM): 0.573
- relative viability ([4]; first compound 0.003162 µM): 0.528
- relative viability ([4]; first compound 0.01 µM): 0.451
- relative viability ([4]; first compound 0.03162 µM): 0.269
- relative viability ([4]; first compound 0.1 µM): 0.242

Cell Line: LXF-289
- relative viability ([1]; first compound 0.001 µM): 0.627
- relative viability ([1]; first compound 0.003162 µM): 0.706
- relative viability ([1]; first compound 0.01 µM): 0.479
- relative viability ([1]; first compound 0.03162 µM): 0.106
- relative viability ([1]; first compound 0.1 µM): 0.112
- relative viability ([2]; first compound 0.001 µM): 0.922
- relative viability ([2]; first compound 0.003162 µM): 0.921
- relative viability ([2]; first compound 0.01 µM): 0.783
- relative viability ([2]; first compound 0.03162 µM): 0.282
- relative viability ([2]; first compound 0.1 µM): 0.141
- relative viability ([3]; first compound 0.001 µM): 0.396
- relative viability ([3]; first compound 0.003162 µM): 0.372
- relative viability ([3]; first compound 0.01 µM): 0.321
- relative viability ([3]; first compound 0.03162 µM): 0.222
- relative viability ([3]; first compound 0.1 µM): 0.151
- relative viability ([4]; first compound 0.001 µM): 1.07
- relative viability ([4]; first compound 0.003162 µM): 0.935
- relative viability ([4]; first compound 0.01 µM): 0.303
- relative viability ([4]; first compound 0.03162 µM): 0.0848
- relative viability ([4]; first compound 0.1 µM): 0.0776

Cell Line: UMC-11
- relative viability ([1]; first compound 0.001 µM): 1.18
- relative viability ([1]; first compound 0.003162 µM): 1.15
- relative viability ([1]; first compound 0.01 µM): 0.834
- relative viability ([1]; first compound 0.03162 µM): 0.829
- relative viability ([1]; first compound 0.1 µM): 0.47
- relative viability ([2]; first compound 0.001 µM): 1.04
- relative viability ([2]; first compound 0.003162 µM): 1.06
- relative viability ([2]; first compound 0.01 µM): 0.98
- relative viability ([2]; first compound 0.03162 µM): 0.879
- relative viability ([2]; first compound 0.1 µM): 0.208
- relative viability ([3]; first compound 0.001 µM): 0.57
- relative viability ([3]; first compound 0.003162 µM): 0.417
- relative viability ([3]; first compound 0.01 µM): 0.518
- relative viability ([3]; first compound 0.03162 µM): 0.37
- relative viability ([3]; first compound 0.1 µM): 0.311
- relative viability ([4]; first compound 0.001 µM): 0.41
- relative viability ([4]; first compound 0.003162 µM): 0.496
- relative viability ([4]; first compound 0.01 µM): 0.356
- relative viability ([4]; first compound 0.03162 µM): 0.38
- relative viability ([4]; first compound 0.1 µM): 0.247

Cell Line: LC-2-ad
- relative viability ([1]; first compound 0.001 µM): 1.15
- relative viability ([1]; first compound 0.003162 µM): 0.885
- relative viability ([1]; first compound 0.01 µM): 0.832
- relative viability ([1]; first compound 0.03162 µM): 0.258
- relative viability ([1]; first compound 0.1 µM): 0.219
- relative viability ([2]; first compound 0.001 µM): 0.978
- relative viability ([2]; first compound 0.003162 µM): 0.917
- relative viability ([2]; first compound 0.01 µM): 0.82
- relative viability ([2]; first compound 0.03162 µM): 0.188
- relative viability ([2]; first compound 0.1 µM): 0.111
- relative viability ([3]; first compound 0.001 µM): 0.797
- relative viability ([3]; first compound 0.003162 µM): 0.863
- relative viability ([3]; first compound 0.01 µM): 0.729
- relative viability ([3]; first compound 0.03162 µM): 0.658
- relative viability ([3]; first compound 0.1 µM): 0.469
- relative viability ([4]; first compound 0.001 µM): 0.805
- relative viability ([4]; first compound 0.003162 µM): 0.791
- relative viability ([4]; first compound 0.01 µM): 0.65
- relative viability ([4]; first compound 0.03162 µM): 0.482
- relative viability ([4]; first compound 0.1 µM): 0.224

Cell Line: SK-MES-1
- relative viability ([1]; first compound 0.001 µM): 0.748
- relative viability ([1]; first compound 0.003162 µM): 0.328
- relative viability ([1]; first compound 0.01 µM): 0.166
- relative viability ([1]; first compound 0.03162 µM): 0.239
- relative viability ([1]; first compound 0.1 µM): 0.153
- relative viability ([2]; first compound 0.001 µM): 0.499
- relative viability ([2]; first compound 0.003162 µM): 0.468
- relative viability ([2]; first compound 0.01 µM): 0.295
- relative viability ([2]; first compound 0.03162 µM): 0.201
- relative viability ([2]; first compound 0.1 µM): 0.203
- relative viability ([3]; first compound 0.001 µM): 0.387
- relative viability ([3]; first compound 0.003162 µM): 0.264
- relative viability ([3]; first compound 0.01 µM): 0.168
- relative viability ([3]; first compound 0.03162 µM): 0.172
- relative viability ([3]; first compound 0.1 µM): 0.152
- relative viability ([4]; first compound 0.001 µM): 0.587
- relative viability ([4]; first compound 0.003162 µM): 0.22
- relative viability ([4]; first compound 0.01 µM): 0.165
- relative viability ([4]; first compound 0.03162 µM): 0.199
- relative viability ([4]; first compound 0.1 µM): 0.161

Cell Line: A-427
- relative viability ([1]; first compound 0.001 µM): 1
- relative viability ([1]; first compound 0.003162 µM): 0.899
- relative viability ([1]; first compound 0.01 µM): 0.443
- relative viability ([1]; first compound 0.03162 µM): 0.195
- relative viability ([1]; first compound 0.1 µM): 0.171
- relative viability ([2]; first compound 0.001 µM): 1.09
- relative viability ([2]; first compound 0.003162 µM): 0.686
- relative viability ([2]; first compound 0.01 µM): 0.808
- relative viability ([2]; first compound 0.03162 µM): 0.199
- relative viability ([2]; first compound 0.1 µM): 0.13
- relative viability ([3]; first compound 0.001 µM): 0.629
- relative viability ([3]; first compound 0.003162 µM): 0.546
- relative viability ([3]; first compound 0.01 µM): 0.463
- relative viability ([3]; first compound 0.03162 µM): 0.342
- relative viability ([3]; first compound 0.1 µM): 0.273
- relative viability ([4]; first compound 0.001 µM): 0.756
- relative viability ([4]; first compound 0.003162 µM): 0.745
- relative viability ([4]; first compound 0.01 µM): 0.481
- relative viability ([4]; first compound 0.03162 µM): 0.259
- relative viability ([4]; first compound 0.1 µM): 0.199

Cell Line: NCI-H322M
- relative viability ([1]; first compound 0.001 µM): 0.73
- relative viability ([1]; first compound 0.003162 µM): 0.445
- relative viability ([1]; first compound 0.01 µM): 0.334
- relative viability ([1]; first compound 0.03162 µM): 0.36
- relative viability ([1]; first compound 0.1 µM): 0.344
- relative viability ([2]; first compound 0.001 µM): 0.61
- relative viability ([2]; first compound 0.003162 µM): 0.362
- relative viability ([2]; first compound 0.01 µM): 0.239
- relative viability ([2]; first compound 0.03162 µM): 0.227
- relative viability ([2]; first compound 0.1 µM): 0.217
- relative viability ([3]; first compound 0.001 µM): 0.607
- relative viability ([3]; first compound 0.003162 µM): 0.445
- relative viability ([3]; first compound 0.01 µM): 0.41
- relative viability ([3]; first compound 0.03162 µM): 0.457
- relative viability ([3]; first compound 0.1 µM): 0.388
- relative viability ([4]; first compound 0.001 µM): 0.564
- relative viability ([4]; first compound 0.003162 µM): 0.445
- relative viability ([4]; first compound 0.01 µM): 0.356
- relative viability ([4]; first compound 0.03162 µM): 0.369
- relative viability ([4]; first compound 0.1 µM): 0.411

Cell Line: NCI-H1975
- relative viability ([1]; first compound 0.001 µM): 0.173
- relative viability ([1]; first compound 0.003162 µM): 0.158
- relative viability ([1]; first compound 0.01 µM): 0.154
- relative viability ([1]; first compound 0.03162 µM): 0.182
- relative viability ([1]; first compound 0.1 µM): 0.13
- relative viability ([2]; first compound 0.001 µM): 0.983
- relative viability ([2]; first compound 0.003162 µM): 1.1
- relative viability ([2]; first compound 0.01 µM): 0.725
- relative viability ([2]; first compound 0.03162 µM): 0.245
- relative viability ([2]; first compound 0.1 µM): 0.179
- relative viability ([3]; first compound 0.001 µM): 0.307
- relative viability ([3]; first compound 0.003162 µM): 0.373
- relative viability ([3]; first compound 0.01 µM): 0.387
- relative viability ([3]; first compound 0.03162 µM): 0.197
- relative viability ([3]; first compound 0.1 µM): 0.167
- relative viability ([4]; first compound 0.001 µM): 0.755
- relative viability ([4]; first compound 0.003162 µM): 0.78
- relative viability ([4]; first compound 0.01 µM): 0.433
- relative viability ([4]; first compound 0.03162 µM): 0.179
- relative viability ([4]; first compound 0.1 µM): 0.139
